From patent US6737383B1, “Herbicidal oxadiazolidines” (priority 1999, dated 2004)

What was measured:
bedstraw = experiment: Test B pre/postemergence bedstraw; type: in vivo, Galium aparine
Summary of the method: (§1)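 Herbicidal effect was estimated by eye on a ten-point control scale after plants spent twelve to sixteen days in a greenhouse following soil or foliar treatment. Foliar sprays targeted plants at one to four leaves; all doses were formulated in a non-phytotoxic solvent with surfactant.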

blackgrass = experiment: Test B pre/postemergence blackgrass; type: in vivo, Alopecurus myosuroides
Summary of the method: as §1

surinam grass = experiment: Test B pre/postemergence surinam grass; type: in vivo, Brachiaria decumbens
Summary of the method: as §1

cocklebur = experiment: Test B pre/postemergence cocklebur; type: in vivo, Xanthium strumarium
Summary of the method: as §1

crabgrass = experiment: Test B pre/postemergence crabgrass; type: in vivo, Digitaria sanguinalis
Summary of the method: as §1

giant foxtail = experiment: Test B pre/postemergence giant foxtail; type: in vivo, Setaria faberii
Summary of the method: as §1

morningglory = experiment: Test B pre/postemergence morningglory; type: in vivo, Ipomoea hederacea
Summary of the method: as §1

pigweed = experiment: Test B pre/postemergence pigweed; type: in vivo, Amaranthus retroflexus
Summary of the method: as §1

soybean = experiment: Test B pre/postemergence soybean; type: in vivo, Glycine max
Summary of the method: as §1

velvetleaf = experiment: Test B pre/postemergence velvetleaf; type: in vivo, Abutilon theophrasti
Summary of the method: as §1

wheat = experiment: Test B pre/postemergence wheat; type: in vivo, Triticum aestivum
Summary of the method: as §1

wild oat = experiment: Test B pre/postemergence wild oat; type: in vivo, Avena fatua
Summary of the method: as §1

purple nutsedge = experiment: Test B pre/postemergence purple nutsedge; type: in vivo, Cyperus rotundus
Summary of the method: as §1

rice = experiment: Test B flood test rice; type: in vivo, Oryza sativa
Summary of the method: (§2)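 Read-out is a visual response score from 0 (no effect) to 10 (complete control), assigned by comparison with untreated controls. Treatment was applied at the 2-leaf stage, and plants stayed in the greenhouse for twelve to sixteen days before scoring.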

smallflower flatsedge = experiment: Test B flood test smallflower flatsedge; type: in vivo, Cyperus difformis
Summary of the method: as §2

bamyardgrass = experiment: Test B flood test barnyardgrass; type: in vivo, Echinochloa crus-galli
Summary of the method: as §2

[1] = Preemergence, Rate 62 g/ha, scale of 0 to 10 where 0 is no effect and 10 is complete control
[2] = Preemergence, Rate 250 g/ha, scale of 0 to 10 where 0 is no effect and 10 is complete control
[3] = Preemergence, Rate 500 g/ha, scale of 0 to 10 where 0 is no effect and 10 is complete control
[4] = Rate 62 g/ha, Postemergence, scale of 0 to 10 where 0 is no effect and 10 is complete control
[5] = Rate 125 g/ha, Postemergence, scale of 0 to 10 where 0 is no effect and 10 is complete control
[6] = Rate 125 g/ha, Preemergence, scale of 0 to 10 where 0 is no effect and 10 is complete control
[7] = Rate 250 g/ha, Postemergence, scale of 0 to 10 where 0 is no effect and 10 is complete control
[8] = Rate 500 g/ha, Postemergence, scale 0 to 10, 0 no effect, 10 complete control
[9] = Pre-emergence, Rate 1000 g/ha, scale 0 to 10 (0 no effect, 10 complete control)
[10] = Rate 62 g/ha, headed Pre-emergence (flood test species), scale 0 to 10 (0 no effect, 10 complete control)
[11] = Rate 125 g/ha, Pre-emergence, flood test species, scale 0 to 10 where 0 is no effect and 10 is complete control
[12] = Rate 250 g/ha, Pre-emergence, flood-test species, scale 0 to 10, 0 is no effect, 10 is complete control
[13] = Rate 500 g/ha, Pre-emergence, flood test species, scale 0 to 10 (0 no effect, 10 complete control)
[14] = Rate 2000 g/ha, Pre-emergence (as headed), scale 0 to 10

`CCN(C(=O)n1oc(=O)n(N(C)C)c1=O)C1CCCCC1` [Compound 274] was tested, and the “Bedstraw plant response rating” value (bedstraw; [1]) was 0, the “Bedstraw plant response rating” value (bedstraw; [2]) was 0 and the “Plant response rating, Bedstraw” value (bedstraw; [3]) was 0. For the same compound, the “Bedstraw plant response rating” value (bedstraw; [4]) was 0, the “Bedstraw plant response rating” value (bedstraw; [5]) was 0 and the “Bedstraw plant response rating” value (bedstraw; [6]) was 0. The “Plant response rating, Bedstraw” value (bedstraw; [7]) was 0, the “Bedstraw plant response rating” value (bedstraw; [8]) was 0 and the “Blackgrass plant response rating” value (blackgrass; [1]) was 0. The “Blackgrass plant response rating” value (blackgrass; [2]) was 0, the “Plant response rating, Blackgrass” value (blackgrass; [3]) was 0 and the “Blackgrass plant response rating” value (blackgrass; [4]) was 0. The “Blackgrass plant response rating” value (blackgrass; [5]) was 0, the “Blackgrass plant response rating” value (blackgrass; [6]) was 0 and the “Plant response rating, Blackgrass” value (blackgrass; [7]) was 0. For the same compound, the “Blackgrass plant response rating” value (blackgrass; [8]) was 0, the “B. signalgrass plant response rating” value (surinam grass; [1]) was 0 and the “B. signalgrass plant response rating” value (surinam grass; [2]) was 0. For the same compound, the “Plant response rating, B. signalgrass” value (surinam grass; [3]) was 0, the “B. signalgrass plant response rating” value (surinam grass; [4]) was 0 and the “B. signalgrass plant response rating” value (surinam grass; [5]) was 0. For the same compound, the “B. signalgrass plant response rating” value (surinam grass; [6]) was 0, the “Plant response rating, B. signalgrass” value (surinam grass; [7]) was 0 and the “B. signalgrass plant response rating” value (surinam grass; [8]) was 0. The “Cocklebur plant response rating” value (cocklebur; [1]) was 0, the “Cocklebur plant response rating” value (cocklebur; [2]) was 0 and the “Plant response rating, Cocklebur” value (cocklebur; [3]) was 0. For the same compound, the “Cocklebur plant response rating” value (cocklebur; [4]) was 0, the “Cocklebur plant response rating” value (cocklebur; [5]) was 0 and the “Cocklebur plant response rating” value (cocklebur; [6]) was 0. The “Plant response rating, Cocklebur” value (cocklebur; [7]) was 0, the “Cocklebur plant response rating” value (cocklebur; [8]) was 0 and the “Crabgrass plant response rating” value (crabgrass; [1]) was 0. For the same compound, the “Crabgrass plant response rating” value (crabgrass; [2]) was 1, the “Plant response rating, Crabgrass” value (crabgrass; [3]) was 5 and the “Crabgrass plant response rating” value (crabgrass; [5]) was 0. The “Crabgrass plant response rating” value (crabgrass; [6]) was 0, the “Plant response rating, Crabgrass” value (crabgrass; [7]) was 0 and the “Crabgrass plant response rating” value (crabgrass; [8]) was 0. The “Giant foxtail plant response rating” value (giant foxtail; [1]) was 0, the “Giant foxtail plant response rating” value (giant foxtail; [2]) was 6 and the “Plant response rating, Giant foxtail” value (giant foxtail; [3]) was 9. For the same compound, the “Giant foxtail plant response rating” value (giant foxtail; [5]) was 0, the “Giant foxtail plant response rating” value (giant foxtail; [6]) was 3 and the “Plant response rating, Giant foxtail” value (giant foxtail; [7]) was 0. The “Giant foxtail plant response rating” value (giant foxtail; [8]) was 0, the “Morningglory plant response rating” value (morningglory; [1]) was 0 and the “Morningglory plant response rating” value (morningglory; [2]) was 0. The “Plant response rating, Morningglory” value (morningglory; [3]) was 0, the “Morningglory plant response rating” value (morningglory; [5]) was 0 and the “Morningglory plant response rating” value (morningglory; [6]) was 0. For the same compound, the “Plant response rating, Morningglory” value (morningglory; [7]) was 0, the “Morningglory plant response rating” value (morningglory; [8]) was 0 and the “Redroot pigweed plant response rating” value (pigweed; [1]) was 0. The “Redroot pigweed plant response rating” value (pigweed; [2]) was 0, the “Plant response rating, Redroot pigweed” value (pigweed; [3]) was 0 and the “Redroot pigweed plant response rating” value (pigweed; [5]) was 0. The “Redroot pigweed plant response rating” value (pigweed; [6]) was 0, the “Plant response rating, Redroot pigweed” value (pigweed; [7]) was 1 and the “Redroot pigweed plant response rating” value (pigweed; [8]) was 1. For the same compound, the “Soybean plant response rating” value (soybean; [1]) was 0, the “Soybean plant response rating” value (soybean; [2]) was 0 and the “Plant response rating, Soybean” value (soybean; [3]) was 0. The “Soybean plant response rating” value (soybean; [5]) was 3, the “Soybean plant response rating” value (soybean; [6]) was 0 and the “Plant response rating, Soybean” value (soybean; [7]) was 5. For the same compound, the “Soybean plant response rating” value (soybean; [8]) was 5, the “Velvetleaf plant response rating” value (velvetleaf; [1]) was 0 and the “Velvetleaf plant response rating” value (velvetleaf; [2]) was 0. For the same compound, the “Plant response rating, Velvetleaf” value (velvetleaf; [3]) was 0, the “Velvetleaf plant response rating” value (velvetleaf; [5]) was 0 and the “Velvetleaf plant response rating” value (velvetleaf; [6]) was 0. The “Plant response rating, Velvetleaf” value (velvetleaf; [7]) was 0, the “Velvetleaf plant response rating” value (velvetleaf; [8]) was 0 and the “Wheat plant response rating” value (wheat; [1]) was 0. The “Wheat plant response rating” value (wheat; [2]) was 0, the “Plant response rating, Wheat” value (wheat; [3]) was 0 and the “Wheat plant response rating” value (wheat; [5]) was 0. For the same compound, the “Wheat plant response rating” value (wheat; [6]) was 0, the “Plant response rating, Wheat” value (wheat; [7]) was 0 and the “Wheat plant response rating” value (wheat; [8]) was 0. For the same compound, the “Wild oats plant response rating” value (wild oat; [1]) was 0, the “Wild oats plant response rating” value (wild oat; [2]) was 0 and the “Plant response rating, Wild oats” value (wild oat; [3]) was 0. The “Wild oats plant response rating” value (wild oat; [5]) was 0, the “Plant response rating, Wild oats” value (wild oat; [7]) was 0 and the “Wild oats plant response rating” value (wild oat; [8]) was 0. The “Nutsedge plant response rating” value (purple nutsedge; [1]) was 0, the “Nutsedge plant response rating” value (purple nutsedge; [2]) was 0 and the “Plant response rating, Nutsedge” value (purple nutsedge; [3]) was 0. The “Nutsedge plant response rating” value (purple nutsedge; [5]) was 0, the “Nutsedge plant response rating” value (purple nutsedge; [6]) was 0 and the “Plant response rating, Nutsedge” value (purple nutsedge; [7]) was 0. The “Nutsedge plant response rating” value (purple nutsedge; [8]) was 0, the “Rice plant response rating” value (rice; [9]) was 0 and the “Rice plant response rating” value (rice; [10]) was 0. For the same compound, the “Rice plant response rating” value (rice; [11]) was 0, the “Rice plant response rating” value (rice; [12]) was 0 and the “Rice plant response rating” value (rice; [13]) was 0. For the same compound, the “Rice plant response rating” value (rice; [14]) was 0, the “S. Flatsedge plant response rating” value (smallflower flatsedge; [9]) was 0 and the “S. Flatsedge plant response rating” value (smallflower flatsedge; [10]) was 0. For the same compound, the “S. Flatsedge plant response rating” value (smallflower flatsedge; [11]) was 0, the “S. Flatsedge plant response rating” value (smallflower flatsedge; [12]) was 0 and the “S. Flatsedge plant response rating” value (smallflower flatsedge; [13]) was 0. The “S. Flatsedge plant response rating” value (smallflower flatsedge; [14]) was 0, the “Barnyardgrass plant response rating” value (bamyardgrass; [9]) was 0 and the “Barnyardgrass plant response rating” value (bamyardgrass; [10]) was 0. The “Barnyardgrass plant response rating” value (bamyardgrass; [11]) was 0, the “Barnyardgrass plant response rating” value (bamyardgrass; [12]) was 0 and the “Barnyardgrass plant response rating” value (bamyardgrass; [13]) was 0. For the same compound, the “Barnyardgrass plant response rating” value (bamyardgrass; Rate 2000 g/ha, Pre-emergence (as headed), scale 0 to 10, 0 no effect, 10 complete control) was 0.
